Assay results as given in PubChem BioAssay (NCI).
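Where inhibition never reached the appropriate level, the endpoint shown equals the highest concentration tested. Otherwise, values were interpolated linearly from a five-concentration, 48-hour dose response in 96-well plates. GI50: concentration for 50% inhibition of growth. At the TGI there is no net growth.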

Assays:
Test in all cases: NCI-60 cell line screen, 48 h
CAKI-1 renal = tested on: CAKI-1 renal
HCC-2998 colon = tested on: HCC-2998 colon
HL-60(TB) leukemia = tested on: HL-60(TB) leukemia
MDA-MB-231 breast = tested on: MDA-MB-231 breast
NCI-H226 lung = tested on: NCI-H226 lung
OVCAR-5 ovarian = tested on: OVCAR-5 ovarian
OVCAR-8 ovarian = tested on: OVCAR-8 ovarian
RPMI-8226 leukemia = tested on: RPMI-8226 leukemia
SF-295 CNS = tested on: SF-295 CNS
SR leukemia = tested on: SR leukemia

CN(C)CCN1C(=O)c2c(c3c4ccccc4n4c3c3c2c2ccccc2n3C2CC(O)C(O)C4(C)O2)C1=O (stereo not given)
GI50 (CAKI-1 renal): 1.98 µM
TGI (CAKI-1 renal): 12 µM
GI50 (HCC-2998 colon): 3.93 µM
TGI (HCC-2998 colon): 10.6 µM
GI50 (HL-60(TB) leukemia): 2.47 µM
TGI (HL-60(TB) leukemia): 12.8 µM
GI50 (MDA-MB-231 breast): 2.61 µM
TGI (MDA-MB-231 breast): 11.5 µM
GI50 (NCI-H226 lung): 2.26 µM
TGI (NCI-H226 lung): 29 µM
GI50 (OVCAR-5 ovarian): 4.43 µM
TGI (OVCAR-5 ovarian): 27.6 µM
GI50 (OVCAR-8 ovarian): 1.47 µM
TGI (OVCAR-8 ovarian): 9.39 µM
GI50 (RPMI-8226 leukemia): 1.58 µM
TGI (RPMI-8226 leukemia): 7.82 µM
GI50 (SF-295 CNS): 1.45 µM
TGI (SF-295 CNS): 16.6 µM
GI50 (SR leukemia): 0.207 µM
TGI (SR leukemia): 6.17 µM
